Laboratory results taken from paper PMC8509676, “Residual Helicity at the Active Site of the Histidine Phosphocarrier, HPr, Modulates Binding Affinity to Its Natural Partners” (International Journal of Molecular Sciences, 2021).
Where two headings read alike, the source gives them in different places.

B1: HPr^9–30 wild-type peptide (residues 9-30 of HPr from Streptomyces coelicolor) (peptide)
peptide: Ac-GWAEGLHARPASIFVRAATATG-NH2
notes: HPr (histidine phosphocarrier) of Streptomyces coelicolor, HPr^sc, residues 9-30; first letter printed as G^9; The limit residues are printed as Gly9-Ala30 (abstract) and Ala9-Gly30 (introduction); source: synthetic peptide, bought: NZYTech (purity >95%)
B2: HPr^9–30 P18A/I21A/V23A peptide (peptide)
peptide: Ac-GWAEGLHARAASAFARAATATG-NH2
notes: HPr of Streptomyces coelicolor, residues 9-30, with P18A, I21A and V23A; also called triple-mutant; source: synthetic peptide, bought: NZYTech (purity >95%)
B3: HPr^9–30 I21A peptide (peptide)
peptide: Ac-GWAEGLHARPASAFVRAATATG-NH2
notes: HPr of Streptomyces coelicolor, residues 9-30, with I21A; source: synthetic peptide, bought: NZYTech (purity >95%)
B4: HPr^9–30 P18A peptide (peptide)
peptide: Ac-GWAEGLHARAASIFVRAATATG-NH2
notes: HPr of Streptomyces coelicolor, residues 9-30, with P18A; source: synthetic peptide, bought: NZYTech (purity >95%)
B5: HPr^9–30 P18A/I21A/F22A/V23A peptide (peptide)
peptide: Ac-GWAEGLHARAASAAARAATATG-NH2
notes: HPr of Streptomyces coelicolor, residues 9-30, with P18A, I21A, F22A and V23A; also called quadruple-mutant; source: synthetic peptide, bought: NZYTech (purity >95%)
B6: HPr^9–30 V23A peptide (peptide)
peptide: Ac-GWAEGLHARPASIFARAATATG-NH2
notes: HPr of Streptomyces coelicolor, residues 9-30, with V23A; source: synthetic peptide, bought: NZYTech (purity >95%)

Experiments:
[1] = Translational diffusion NMR (DOSY); format: physicochemical; settings: for D (translational diffusion coefficient): DOSY, 10 °C, 100% D2O, 70-120 µM peptide, fitting errors, repeated twice; for Rh (in parentheses, from DOSY): from comparison with the Rh of dioxane (2.12 Å)
Procedure: (b) Translational diffusion NMR (DOSY): Peptide concentrations were the same as those used in the 1D-^1H-NMR spectra. Translational self-diffusion measurements were performed with the pulsed-gradient spin-echo sequence in the presence of 100% D2O. The following relationship existed between the translational self-diffusion coefficient, D, and the delays used during experiment acquisition:(2) I/I0=−exp(DγH2δ^2G^2(Δ−δ/3−τ/2)) where I is the peak intensity of a particular resonance (or a group of them) at any gradient strength; I0 is the maximum peak intensity of the same resonance(s) at the smallest gradient strength (that is, at 2% of the total power of the gradient coil); D is the translational self-diffusion constant (in cm^2 s^−1); δ is the duration (in s) of the gradient; G is the gradient strength (in T cm^−1); ∆ is the time (in s) between the gradients; γH is the gyromagnetic constant of the proton (in rad s^−1 T^−1); and τ is the recovery delay between the bipolar gradients (100 µs in our experiments). The gradient strength (G) was varied in 16 lineal steps, between 2 and 95% of the total power of the gradient coil of the probe. The gradient strength was calibrated by using the value of D for the residual proton water line in a sample containing 100% D2O placed in a 5 mm tube [42]. Data were plotted as I/I0 versus G^2, and the exponential factor of the curve was:(3) DγH2δ^2(Δ−δ/3−τ/2) from which D can be obtained. The duration of the gradient (δ) was 2.25 ms, and the time between the two gradients (∆) was set to 200 ms. The signal from the methyl groups between 1.1 and 0.70 ppm were used for integration of the intensity. A final concentration of 1% of dioxane was added to each peptide; the hydrodynamic radius, Rh, of each peptide was obtained for comparison by assuming that the Rh of dioxane was 2.12 Å [42]. The DOSY experiment was repeated twice with fresh samples for each peptide.

[2] = test system: Staphylococcus aureus CECT59; format: cell-based
Procedure: The CECT59 strain of the Gram-positive bacteria Staphylococcus aureus from the Spanish Type Culture Collection (Colección Española de Cultivos Tipo, CECT, Universitat de Valencia, Spain) was used for determining its sensitivity to the HPr peptides studied in this work. The MIC for each peptide was determined by the two-fold broth microdilution method according to the Clinical and Laboratory Standards Institute (CLSI) guidelines, with some modifications as previously described. For this testing procedure, a bacteria colony previously grown in MH agar plates was isolated and incubated in MH broth at 37 °C overnight to prepare the bacteria inoculum to be used in each assay. Then, the bacteria suspensions were adjusted to a 100× dilution of an 0.5 McFarland turbidity standard in MH broth and incubated with different concentrations of each peptide in round-bottom 96-well polystyrene plates (Deltalab S.L., Rubí, Spain) (50 μL/well) for 24 h at 37 °C. The peptide concentrations employed comprised two-fold dilutions starting at either 120, 160, or 400 µM, depending on the experiment. […] All assays were performed in triplicate.

Rsd^ec = target: T1, Rsd^ec (Escherichia coli, UniProt P0AFX4); test: Isothermal titration calorimetry (ITC), peptide/Rsd^ec binding; settings: ITC, 25 °C; for ΔH, Rsd^ec: 50 mM Tris pH 7.0
T1 construct: His-tag; made in house; host or cells: E. coli C41
Procedure: The experimental set-up and data processing of ITC experiments has been described previously. Rsd^ec or EIN^sc (at 10–20 µM) were injected into the cell, and the peptides in the syringe (100–200 µM) in 50 mM of Tris buffer, pH 7.0. The temperature for all the experiments was 25 °C. Typically, each calorimetric titration consisted of performing 19 injections with 2 μL volume, with a time spacing of 150 s, while stirring at 750 rpm in an Auto-iTC200 high-sensitivity microcalorimeter (MicroCal, Malvern-Panalytical, Malvern, UK). The results were analysed by applying a model that considered a single binding site (assuming a 1:1 stoichiometry) for the peptide/EIN^sc or peptide/Rsd^ec interaction using a nonlinear least-squares regression analysis in Origin 7.0 (OriginLab, Northampton, MA, USA) with user-defined fitting routines.

[3] = Far-UV CD, helicity from molar ellipticity at 222 nm; format: physicochemical; settings: 5 °C; for [Θ]^222 (value in parentheses): 50 mM Tris pH 7.0; for Helicity (%): 50 mM Tris pH 7.0, from [Θ]^222 assuming −39,500 deg cm^2 dmol^−1 for a fully formed α-helix
Procedure: Spectra were collected on a Jasco J810 spectropolarimeter (Jasco, Tokyo, Japan) interfaced with a Peltier unit. Far-UV measurements were performed with samples placed in quartz cells with a 0.1 cm path length (Hellma, Kruibeke, Belgium), with a response time of 2 s, a band width of 1 nm, and a scan velocity of 50 nm/min. For all peptides, a wide range of concentrations (10–50 µM) was used to determine whether either the shape or the intensity of the spectra was concentration-dependent. None of those features changed in the concentration range explored. The experiments in aqueous solution were acquired at 5 °C in Tris buffer (50 mM, pH 7.0). Raw ellipticity was converted to molar ellipticity, [Θ], from which the fraction of helical populations was determined as previously described. For the experiments in the presence of each protein (repeated three times), the same concentration used in the fluorescence experiments was used, and the experimental set-up was the same as described above for the isolated peptides.

[4] = TFE titration followed by far-UV CD (disordered-helical two-state equilibrium); format: physicochemical; settings: for [TFE]1/2 / m: TFE titration by far-UV CD, 20 µM peptide, two-state fit, fitting errors; for percentage of helical population (in parentheses): from ∆G^water assuming a two-state conformational equilibrium; for ∆G^water: product of m- and [TFE]1/2 values, error propagation
Procedure: For experiments in the presence of TFE, the same set of experimental parameters was used. Cosolvent concentrations were indicated in percentage of volume (%). […] The peptide concentration for these experiments was 20 µM.

[5] = target: T2, N-terminal domain of EI from Streptomyces coelicolor (EIN^sc) (Streptomyces coelicolor); test: other fluorescence titration; peptide 0–30 µM added to 3 µM Rsd^ec or EIN^sc; 50 mM Tris, pH 7.0, 25 °C; samples left overnight at 5 °C; blank of peptide subtracted; settings: both partners purified
T2 chain: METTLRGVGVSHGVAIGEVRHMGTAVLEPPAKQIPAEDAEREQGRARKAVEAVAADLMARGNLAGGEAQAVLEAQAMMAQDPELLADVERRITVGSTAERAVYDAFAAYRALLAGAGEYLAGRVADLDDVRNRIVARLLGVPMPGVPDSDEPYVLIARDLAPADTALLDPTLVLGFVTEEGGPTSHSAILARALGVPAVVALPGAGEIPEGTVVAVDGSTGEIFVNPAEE

[6] = target: T2, N-terminal domain of EI from …; test: ITC; Rsd^ec or EIN^sc (10–20 µM) in the cell, peptide (100–200 µM) in the syringe; 50 mM Tris, pH 7.0, 25 °C; single binding-site model, 1:1 stoichiometry assumed; settings: both partners purified
[7] = target: T3, Regulator of sigma D from Escherichia coli (Rsd^ec) (E. coli, UniProt P0AFX4 1-158); test: as above; settings: both partners purified
T3 construct: Rsd (regulator of sigma D), anti-sigma factor of sigma 70, E. coli; 158-residue-long protein; called 'intact Rsd' in the abstract and 'wild-type Rsd vector' in the methods; Vector was a gift from Ann Hochschild; source: E. coli C41, purified as described [24,50]
T3 sequence (looked up): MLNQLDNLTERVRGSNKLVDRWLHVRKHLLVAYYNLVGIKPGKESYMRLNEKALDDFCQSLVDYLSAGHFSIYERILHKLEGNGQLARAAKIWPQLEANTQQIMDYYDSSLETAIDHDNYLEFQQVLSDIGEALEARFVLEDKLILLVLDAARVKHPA

[8] = S. aureus CECT59, two-fold broth microdilution (CLSI), MH broth, 24 h, 37 °C, triplicate (sd = 0), highest concentration tested 400 µM

Row | Molecule | D (translational diffusion coefficient) [1] [cm^2 s^−1 × 10^6] | Rh (in parentheses, from DOSY) [1] [Å] | ΔH, Rsd^ec (Rsd^ec) [kcal/mol] | [Θ]^222 (value in parentheses) [3] [deg cm^2 dmol^−1] | Helicity (%) [3] [%] | [TFE]1/2 [4] | m [4] | percentage of helical population (in parentheses) [4] [%] | ∆G^water [4] [kcal/mol] | Kd [5] [µM] | Kd [6] [µM] | dH [6] [kcal/mol] | Kd [7] [µM] | dH [7] [kcal/mol] | further results
1 | Ac-GWAEGLHARAASAFARAATATG-NH2 [P18A/I21A/V23A] | 2.5 ± 0.4 | 9 ± 2 | 0.6 ± 0.4 | −2698.61 | 6.8 | 19.0 ± 0.9 % (v/v) | 184 ± 32 cal/mol (% (v/v)) | 0.17 | 3.5 ± 0.6 | – | – | – | – | – | MIC ([2]; CECT59, 24 h): 60 µM; Kd (Rsd^ec; 50 mM Tris pH 7.0, single binding-site model, read-out: Kd, Rsd^ec (ITC)): 2.6 ± 0.4 µM
2 | Ac-GWAEGLHARAASIFVRAATATG-NH2 [Peptide P18A] | 2.0 ± 0.1 | 11 ± 1 | 1.1 ± 0.4 | −1135.47 | 2.9 | 19.8 ± 0.4 % (v/v) | 181 ± 17 cal/mol (% (v/v)) | 0.15 | 3.6 ± 0.3 | – | – | – | – | – | MIC [2, 8]: 120 µM
3 | Ac-GWAEGLHARPASIAVRAATATG-NH2 [Peptide F22A] | 1.83 ± 0.03 | 11 ± 1 | 1.1 ± 0.5 | −84.95 | 0.2 | 22 ± 1 % (v/v) | 134 ± 27 cal/mol (% (v/v)) | 0.5 | 2.9 ± 0.6 | – | – | – | – | – | MIC [2, 8]: 400 µM
4 | B1 | – | – | – | – | – | – | – | – | – | 10 | 2.3 ± 0.4 | -0.8 ± 0.4 | 1.4 ± 0.3 | 1.3 ± 0.4 | –
5 | B2 | – | – | – | – | – | – | – | – | – | – | – | – | 2.6 ± 0.4 | 0.6 ± 0.4 | –
6 | B3 | – | – | – | – | – | – | – | – | – | – | – | – | – | 1 ± 0.4 | –
7 | B4 | – | – | – | – | – | – | – | – | – | – | – | – | 2.2 ± 0.4 | 1.1 ± 0.4 | –
8 | B5 | – | – | – | – | – | – | – | – | – | 11 | 1.1 ± 0.2 | 0.2 ± 0.4 | – | 4.3 ± 0.5 | –
9 | B6 | – | – | – | – | – | – | – | – | – | 9 | 9.1 ± 0.9 | -6.6 ± 0.5 | 8.3 ± 0.9 | -0.8 ± 0.5 | –
